Measurements reported in ChEMBL document CHEMBL5725763, “Factor XIa inhibitors” (2018).

These compounds were tested against Coagulation factor XI (Homo sapiens, UniProt P03951) (assay: Factor XIa Assay: The effectiveness of a compound of the present invention as an inhibitor of Coagulation Factor XIa can be determined using a relevant purified serine protease, and an appropriate synthetic substrate. The rate of hydrolysis of the chromogenic or fluorogenic substrate by the relevant serine protease was measured both in the absence and presence of compounds of the present invention. Assays were conducted at room temperature or at 37° C. […] A decrease in the rate of fluorescence change in the presence of inhibitor is indicative of enzyme inhibition. Such methods are known to one skilled in the art. […] Times required to achieve equilibration between enzyme and inhibitor were determined in control experiments. Initial velocities of product formation in the absence (Vo) or presence of inhibitor (Vi) were measured. Assuming competitive inhibition, and that unity is negligible compared Km/[S], [I]/e, and [I]/e (where [S], [I], and e respectively represent the total concentrations, of substrate, inhibitor and enzyme), the equilibrium constant (Ki) for dissociation of the inhibitor from the enzyme can be obtained from the dependence of Vo/Vi on [I] shown in the following equation. V o /V i=1+[I]/K iThe activities shown by this assay indicate that the compounds of the invention may be therapeutically useful for treating or preventing various cardiovascular and/or cerebrovascular thromboembolic conditions in patients suffering from unstable angina, acute coronary syndrome, refractory angina, myocardial infarction, transient ischemic attacks, atrial fibrillation, stroke such as thrombotic stroke or embolic stroke, venous thrombosis, coronary and cerebral arterial thrombosis, cerebral and pulmonary embolism, atherosclerosis, deep vein thrombosis, disseminated intravascular coagulation, and reocclusion or restenosis of recanalized vessels.).
Sequence of Coagulation factor XI (P03951 19-387 limits assumed): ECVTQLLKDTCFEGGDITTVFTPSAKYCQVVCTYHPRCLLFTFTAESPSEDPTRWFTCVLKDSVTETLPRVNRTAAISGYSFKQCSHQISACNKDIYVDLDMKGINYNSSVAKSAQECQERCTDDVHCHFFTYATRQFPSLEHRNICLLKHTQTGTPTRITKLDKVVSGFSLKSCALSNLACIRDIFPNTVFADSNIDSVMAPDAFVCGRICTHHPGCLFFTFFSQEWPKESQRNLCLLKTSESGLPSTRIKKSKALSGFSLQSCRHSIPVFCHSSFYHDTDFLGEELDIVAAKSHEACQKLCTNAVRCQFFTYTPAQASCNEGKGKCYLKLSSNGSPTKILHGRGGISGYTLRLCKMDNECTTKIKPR
Sequence of Coagulation factor XI (P03951 388-625 limits assumed): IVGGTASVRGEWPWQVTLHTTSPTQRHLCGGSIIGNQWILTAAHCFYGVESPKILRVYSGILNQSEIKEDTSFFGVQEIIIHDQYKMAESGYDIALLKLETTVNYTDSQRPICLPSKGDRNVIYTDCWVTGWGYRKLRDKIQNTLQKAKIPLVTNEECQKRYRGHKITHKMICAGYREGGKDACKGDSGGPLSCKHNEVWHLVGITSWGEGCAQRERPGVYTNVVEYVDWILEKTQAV
Work on `COC(=O)Nc1ccc2c(N[C@@H](Cc3ccccc3)C(=O)N3CCC[C@@]4(C3)OC(=O)Nc3ccc(Cl)cc34)nn(C)c2c1` yielded a Ki of 8.2 µM.
With `COC(=O)Nc1ccc2c(N[C@@H](Cc3ccccc3)C(=O)N3CCC[C@@]4(C3)OC(=O)Nc3ccc(Cl)cc34)noc2c1` the Ki was 0.523 µM.
With `Nc1ccc(-c2c[nH]c(C(Cc3ccccc3)C(=O)N3CCC[C@@]4(C3)OC(=O)Nc3ccc(Cl)c(F)c34)n2)cn1` (some centres undefined) the Ki was 0.353 µM.
For `CC(=O)Nc1ccc(N[C@@H](Cc2ccccc2)C(=O)N2CCC[C@@]3(C2)OC(=O)Nc2ccc(Cl)cc23)cc1`, the Ki was 10 µM.
